Non-standard residues stand in square brackets, D forms with d. Residues, ends and D or L forms follow the SMILES beside them.

B1: target cyclic peptide 8 (peptide)
peptide: cyclo(PYYVRKKYY[dP])
SMILES: CC(C)[C@@H]1NC(=O)[C@H](Cc2ccc(O)cc2)NC(=O)[C@H](Cc2ccc(O)cc2)NC(=O)[C@@H]2CCCN2C(=O)[C@H]2CCCN2C(=O)[C@H](Cc2ccc(O)cc2)NC(=O)[C@H](Cc2ccc(O)cc2)NC(=O)[C@H](CCCCN)NC(=O)[C@H](CCCCN)NC(=O)[C@H](CCCNC(=N)N)NC1=O
notes: also called ^LP-Y-Y-V-R / ^DP-Y-Y-K-K

The first experiment deals with platelet-derived growth factor β-receptor (PDGFR-β) (Homo sapiens, UniProt P09619). Briefly: Solid-phase assay: displacement of 125I-PDGF-BB from immobilized PDGFR-β. It counts as binding.
platelet-derived growth factor β-receptor (PDGFR-β) (Homo sapiens, UniProt P09619), sequence (P09619 33-1106, species assumed): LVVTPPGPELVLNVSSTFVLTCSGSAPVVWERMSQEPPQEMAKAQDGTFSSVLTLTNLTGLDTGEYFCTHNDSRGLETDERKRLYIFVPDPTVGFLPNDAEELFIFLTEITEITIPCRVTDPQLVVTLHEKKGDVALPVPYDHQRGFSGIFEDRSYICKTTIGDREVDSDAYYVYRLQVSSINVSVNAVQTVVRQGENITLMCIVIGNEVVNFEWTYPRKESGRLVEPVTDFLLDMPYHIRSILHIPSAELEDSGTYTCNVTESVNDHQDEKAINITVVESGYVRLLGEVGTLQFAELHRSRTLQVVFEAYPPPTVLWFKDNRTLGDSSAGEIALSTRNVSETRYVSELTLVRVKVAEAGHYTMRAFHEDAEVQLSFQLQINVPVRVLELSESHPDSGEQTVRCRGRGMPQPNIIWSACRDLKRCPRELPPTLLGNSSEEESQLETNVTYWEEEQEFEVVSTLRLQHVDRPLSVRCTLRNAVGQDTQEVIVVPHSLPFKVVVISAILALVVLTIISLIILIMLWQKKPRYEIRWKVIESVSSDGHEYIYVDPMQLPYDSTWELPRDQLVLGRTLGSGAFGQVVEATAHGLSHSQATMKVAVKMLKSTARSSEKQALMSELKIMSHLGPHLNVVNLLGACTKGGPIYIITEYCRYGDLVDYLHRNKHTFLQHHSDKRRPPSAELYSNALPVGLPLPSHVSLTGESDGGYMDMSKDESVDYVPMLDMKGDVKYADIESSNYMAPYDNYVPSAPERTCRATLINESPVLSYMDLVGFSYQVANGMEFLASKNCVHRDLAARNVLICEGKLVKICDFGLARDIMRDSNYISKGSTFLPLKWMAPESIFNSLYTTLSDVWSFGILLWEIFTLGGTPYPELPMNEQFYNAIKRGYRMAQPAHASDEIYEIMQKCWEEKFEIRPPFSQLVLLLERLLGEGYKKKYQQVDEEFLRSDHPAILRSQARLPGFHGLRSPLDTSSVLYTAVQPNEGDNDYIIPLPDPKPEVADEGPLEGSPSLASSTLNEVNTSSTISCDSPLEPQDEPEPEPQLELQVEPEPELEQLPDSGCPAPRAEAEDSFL
Conditions: not given
As for the experimental part: Direct immobilization of platelet-derived growth factor […] is performed by overnight incubation in immunosorbent 96-well plates (Nunc) at 4° C. using 100 ng of purified protein in 100 μl of 15 mM Na2CO3, 35 mM NaHCO3, pH 9.6. The plates are washed once with tris-buffered saline (TBS, 20 mM Tris-HCl, 150 mM NaCl, pH 7.4), and nonspecific adsorption is blocked by at least 1 h of incubation with TBS plus 1% bovine serum albumin (BSA). Following washing with TBS plus 0.1% Tween, 3000 cpm of ^125I-PDGF-BB and increasing amounts of unlabeled PDGF-BB or the peptide derivative of formula I are added to duplicate wells and incubated for 3 h at room temperature in 0.1% Tween, 1 mM CaCl2, 1 mM MgCl2 and 1% BSA. The plates are washed three times with TBS plus 0.1% Tween, and bound ligand is removed with 0.1 M citric acid, pH 2.5, prior to counting in a γ-counter.
Direct immobilization of platelet-derived growth factor β-receptor (PDGFR-β) was performed by overnight incubation in immunosorbent 96-well plates (Nunc) at 4° C. using 100 ng of purified protein in 100 μl of 15 mM Na2CO3, 35 mM NaHCO3, pH 9.6. Plates were washed once with Tris-buffered saline (TBS, 20 mM Tris-HCL, 150 mM Na Cl, pH 7.4), and nonspecific adsorption was blocked by at least 1 h of incubation with TBS plus 1% bovine serum albumin (BSA). Following washing with TBS plus 0.1% Tween, 3000 cpm of ^125I-PDGF-BB and increasing amounts of unlabeled PDGF-BB or the peptides to be tested were added to duplicate wells and incubated for 3 h at room temperature in TBS plus 0.1% Tween, 1 mM CaCl2, 1 mM MgCl2, and 1% BSA. The plates were washed three times with TBS plus 0.1% Tween, and the bound ligand was removed with 0.1 M citric acid, pH 2.5, before counting in a γ-counter.
The cyclic peptides were analyzed and purified by preparative HPLC (dual-pump Pharmacia system with Waters RCM-μBondapak®-C18-cartridges, 10 μm 300 A 25×100 mm for prep. and 8×100 mm for anal., with flow rates of 8 and 2 ml/mim, respectively; UV detection at 226 and 278 nm), then MS, NMR(600 MHz,1 H) and CD. Solid-phase assays were run, as described in 2.4.
In general terms: In a radioligand displacement assay an active substance lowers the binding of a labelled ligand.
Turning to `CC(C)[C@@H]1NC(=O)[C@H](Cc2c[nH]c3ccccc23)NC(=O)[C@H](Cc2ccc(O)cc2)NC(=O)[C@@H]2CCCN2C(=O)[C@H]2CCCN2C(=O)[C@H](Cc2ccc(O)cc2)NC(=O)[C@H](Cc2c[nH]c3ccccc23)NC(=O)[C@H](CCCCN)NC(=O)[C@H](CCCCN)NC(=O)[C@H](CCCNC(=N)N)NC1=O` [Example 9] (cyclo(YWVRKKWY[dP]P)), the IC50 came to 500 µM.

The same experiment, now with this note: competition with 125I-PDGF-BB, 3 h at room temperature, immobilized purified PDGFR-β; read-out: Assay I50.
Take `CC(C)[C@@H]1NC(=O)[C@H](C)NC(=O)[C@H](Cc2c[nH]c3ccccc23)NC(=O)[C@@H]2CCCN2C(=O)[C@H]2CCCN2C(=O)[C@H](Cc2c[nH]c3ccccc23)NC(=O)[C@H](C)NC(=O)[C@H](CCCCN)NC(=O)[C@H](CCCCN)NC(=O)[C@H](CCCNC(=N)N)NC1=O` [Example 16] (cyclo(PWAVRKKAW[dP])): the IC50 was 800 µM.

`CC[C@H](C)[C@@H]1NC(=O)[C@H](Cc2ccc(O)cc2)NC(=O)[C@@H]2CCCN2C(=O)[C@H]2CCCN2C(=O)[C@H](Cc2ccc(O)cc2)NC(=O)[C@@H]2CCCN2C(=O)[C@H](CCCCN)NC(=O)[C@H](CCCCN)NC(=O)[C@H](CCCNC(=N)N)NC(=O)[C@H](C(C)C)NC1=O` [Example 7] (cyclo(PYIVRKKPY[dP])): the IC50 stood at 1500 µM.

Consider `CC(C)[C@@H]1NC(=O)[C@H](CCCCN)NC(=O)[C@H](Cc2ccc(O)cc2)NC(=O)[C@@H]2CCCN2C(=O)[C@H]2CCCN2C(=O)[C@H](Cc2ccc(O)cc2)NC(=O)[C@H](CCCCN)NC(=O)[C@H](CCCCN)NC(=O)[C@H](CCCCN)NC(=O)[C@H](CCCNC(=N)N)NC1=O` [Example 12] (cyclo(PYKVRKKKY[dP])), for which the IC50 was determined as 1500 µM.

For `CC(C)[C@@H]1NC(=O)[C@H](CCCCN)NC(=O)[C@H](Cc2c[nH]c3ccccc23)NC(=O)[C@@H]2CCCN2C(=O)[C@H]2CCCN2C(=O)[C@H](Cc2c[nH]c3ccccc23)NC(=O)[C@H](CCCCN)NC(=O)[C@H](CCCCN)NC(=O)[C@H](CCCCN)NC(=O)[C@H](CCCNC(=N)N)NC1=O` [Example 18] (cyclo(PWKVRKKKW[dP])), the IC50 turned out to be 500 µM.

As to `CC[C@H](C)[C@@H]1NC(=O)[C@H](Cc2ccc(O)cc2)NC(=O)[C@H](CCCCN)NC(=O)[C@H](CCCCN)NC(=O)[C@H](CCCNC(=N)N)NC(=O)[C@H](C(C)C)NC(=O)[C@H](Cc2ccc(O)cc2)NC(=O)[C@H](CCC(=O)O)NC(=O)[C@@H]2CCCN2C(=O)[C@H]2CCCN2C1=O` [Example 2] (cyclo(PEYVRKKYI[dP])), the IC50 worked out at 2000 µM.

For the molecule `CC(C)[C@@H]1NC(=O)[C@H](Cc2c[nH]c3ccccc23)NC(=O)[C@H](C)NC(=O)[C@@H]2CCCN2C(=O)[C@H]2CCCN2C(=O)[C@H](C)NC(=O)[C@H](Cc2c[nH]c3ccccc23)NC(=O)[C@H](CCCCN)NC(=O)[C@H](CCCCN)NC(=O)[C@H](CCCNC(=N)N)NC1=O` [Example 21] (cyclo(PAWVRKKWA[dP])), the IC50 came to 2000 µM.

On to `CC(C)[C@@H]1NC(=O)[C@H](CO)NC(=O)[C@H](Cc2c[nH]c3ccccc23)NC(=O)[C@@H]2CCCN2C(=O)[C@H]2CCCN2C(=O)[C@H](Cc2c[nH]c3ccccc23)NC(=O)[C@H](CO)NC(=O)[C@H](CCCCN)NC(=O)[C@H](CCCCN)NC(=O)[C@H](CCCNC(=N)N)NC1=O` [Example 17] (cyclo(PWSVRKKSW[dP])), for which the IC50 was 800 µM.

As for `CC(C)[C@@H]1NC(=O)[C@H](CO)NC(=O)[C@H](Cc2ccc(O)cc2)NC(=O)[C@@H]2CCCN2C(=O)[C@H]2CCCN2C(=O)[C@H](Cc2ccc(O)cc2)NC(=O)[C@H](CO)NC(=O)[C@H](CCCCN)NC(=O)[C@H](CCCCN)NC(=O)[C@H](CCCNC(=N)N)NC1=O` [Example 11] (cyclo(PYSVRKKSY[dP])), the IC50 stood at 2000 µM.

For the molecule `CC(C)[C@@H]1NC(=O)[C@H](C)NC(=O)[C@H](Cc2ccc(O)cc2)NC(=O)[C@@H]2CCCN2C(=O)[C@H]2CCCN2C(=O)[C@H](Cc2ccc(O)cc2)NC(=O)[C@H](C)NC(=O)[C@H](CCCCN)NC(=O)[C@H](CCCCN)NC(=O)[C@H](CCCNC(=N)N)NC1=O` [Example 10] (cyclo(PYAVRKKAY[dP])), the IC50 came to 2000 µM.

Turning to `CC(C)[C@@H]1NC(=O)[C@H](Cc2ccc(O)cc2)NC(=O)[C@H](Cc2c[nH]c3ccccc23)NC(=O)[C@@H]2CCCN2C(=O)[C@H]2CCCN2C(=O)[C@H](Cc2c[nH]c3ccccc23)NC(=O)[C@H](Cc2ccc(O)cc2)NC(=O)[C@H](CCCCN)NC(=O)[C@H](CCCCN)NC(=O)[C@H](CCCNC(=N)N)NC1=O` [Example 14] (cyclo(PWYVRKKYW[dP])), the IC50 was determined as 170 µM.

With `CC(C)[C@@H]1NC(=O)[C@H](Cc2ccc(O)cc2)NC(=O)[C@H](Cc2ccc(O)cc2)NC(=O)[C@@H]2CCCN2C(=O)[C@H]2CCCN2C(=O)[C@H](Cc2ccc(O)cc2)NC(=O)[C@H](Cc2ccc(O)cc2)NC(=O)[C@H](CCCCN)NC(=O)[C@H](CCCCN)NC(=O)[C@H](CCCNC(=N)N)NC1=O` [Example 8] (cyclo(PYYVRKKYY[dP])), the IC50 was 800 µM.

Consider `CC[C@H](C)[C@@H]1NC(=O)[C@H](Cc2c[nH]c3ccccc23)NC(=O)[C@H](CCCCN)NC(=O)[C@H](CCCCN)NC(=O)[C@H](CCCNC(=N)N)NC(=O)[C@H](C(C)C)NC(=O)[C@H](Cc2c[nH]c3ccccc23)NC(=O)[C@H](CCC(=O)O)NC(=O)[C@@H]2CCCN2C(=O)[C@H]2CCCN2C1=O` [Example 3] (cyclo(PEWVRKKWI[dP])), for which the IC50 was 1500 µM.

As to `CC[C@H](C)[C@@H]1NC(=O)[C@H](CCC(=O)O)NC(=O)[C@@H]2CCCN2C(=O)[C@H]2CCCN2C(=O)[C@H]([C@@H](C)CC)NC(=O)[C@@H]2CCCN2C(=O)[C@H](CCCCN)NC(=O)[C@H](CCCCN)NC(=O)[C@H](CCCNC(=N)N)NC(=O)[C@H](C(C)C)NC1=O` [Example 1] (cyclo(PEIVRKKPI[dP])), the IC50 amounted to 2200 µM.

For the molecule `CC[C@H](C)[C@@H]1NC(=O)[C@H](Cc2c[nH]c3ccccc23)NC(=O)[C@@H]2CCCN2C(=O)[C@H]2CCCN2C(=O)[C@H](Cc2c[nH]c3ccccc23)NC(=O)[C@@H]2CCCN2C(=O)[C@H](CCCCN)NC(=O)[C@H](CCCCN)NC(=O)[C@H](CCCNC(=N)N)NC(=O)[C@H](C(C)C)NC1=O` [Example 13] (cyclo(PWIVRKKPW[dP])), the IC50 was found to be 260 µM.

With `CC(C)[C@@H]1NC(=O)[C@H](Cc2ccc(O)cc2)NC(=O)[C@H](C)NC(=O)[C@@H]2CCCN2C(=O)[C@H]2CCCN2C(=O)[C@H](C)NC(=O)[C@H](Cc2ccc(O)cc2)NC(=O)[C@H](CCCCN)NC(=O)[C@H](CCCCN)NC(=O)[C@H](CCCNC(=N)N)NC1=O` [Example 20] (cyclo(PAYVRKKYA[dP])), the IC50 amounted to 2000 µM.

A further experiment has as its target T1, platelet-derived growth factor β-receptor (PDGFR-β).
T1 chain: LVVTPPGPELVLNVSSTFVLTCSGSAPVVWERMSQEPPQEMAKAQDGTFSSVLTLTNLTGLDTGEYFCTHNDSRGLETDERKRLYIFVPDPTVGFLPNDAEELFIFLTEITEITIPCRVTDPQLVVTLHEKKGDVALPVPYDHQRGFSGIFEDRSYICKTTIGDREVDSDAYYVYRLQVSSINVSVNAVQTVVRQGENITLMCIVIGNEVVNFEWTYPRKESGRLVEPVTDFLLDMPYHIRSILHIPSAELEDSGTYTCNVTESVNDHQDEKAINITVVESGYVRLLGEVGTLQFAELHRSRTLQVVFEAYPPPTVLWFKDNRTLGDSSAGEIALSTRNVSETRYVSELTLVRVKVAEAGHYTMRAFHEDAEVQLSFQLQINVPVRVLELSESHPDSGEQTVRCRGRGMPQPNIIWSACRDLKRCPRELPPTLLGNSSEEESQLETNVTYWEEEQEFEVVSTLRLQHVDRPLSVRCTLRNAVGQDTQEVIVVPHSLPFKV
Briefly: solid-phase competition, displacement of 125I-PDGF-BB from plate-immobilised PDGFR-β.
Conditions: not given
With B1, the IC50 is 800 µM.

The values above are taken from US6878804B1, “Synthesis of template-fixed β-hairpin loop mimetics” (University of Zurich, priority 1999, dated 2005).
